In patent US20230248723A1, “PYRROLO[2,3-B]PYRAZINE COMPOUNDS AS CCCDNA INHIBITORS FOR THE TREATMENT OF HEPATITIS B VIRUS (HBV) INFECTION” (Hoffmann-La Roche Inc., priority 2017, published 2023):
Where two headings read alike, the source gives them in different places.

Key:
[1] = system: liver-enriched genes; test: HLC maturation screening (microfluidic RT-qPCR of liver-enriched genes); assay type: cell-based, human; details: 96 liver-enriched genes
Method: FIG. 6: Effect of MB-1 on the expression of 96 liver-enriched genes in HLC. HLC seeded on collagen I-coated 6-well plates were treated with MB-1 (1, 5, or 10 μM) in 1% DMSO, or 1% DMSO (each in triplicate) for 4 days. Cells were harvested and expression of 96 liver-enriched genes was analyzed by microfluidic RT-qPCR (Fluidigm).
HLC are seeded on collagen 1-coated 96-well plates in 100 μl medium D containing Matrigel 0.25 mg/ml. The next day (day 1), compound library was added to cells at a final concentration 4 μM in 1% DMSO. Fresh medium and compound was replenished 2 days later (day 3). At day 4, cells were harvested using Cells-to-Ct lysis kit (Ambion/Thermo Fisher), total RNAs were reverse-transcribed, and the resulting cDNA products were loaded into the microfluidic 96.96 Dynamic Array™ IFC and assayed against 32 liver-enriched genes on Biomark HD system (Fluidigm). The relative gene expression was calculated from delta Ct values using house-keeping gene (PPIA) in DMSO control as reference; delta Ct values were then converted to fold-change values. Compounds that increased liver-enriched gene expression in HLC ≥3-fold compared to DMSO control were further tested in dose-response (1, 5, 10, and 50 μM). The secondary screen was performed as above using 96-liver enriched genes. The top candidate (MB-1) was used for all experiments utilizing HLC. […]

[2] = system: pgRNA; test: pgRNA assay (branched DNA), HBV-infected PHH; assay type: cell-based; details: Hepatitis B virus
Method: Fresh primary human hepatocytes (PXB-PHH) harvested from humanized mice (uPA/SCID mice)—herein called PHH—were obtained from PhoenixBio Co., Ltd (Japan). Cells were seeded on a collagen I-coated plate at the following cell density: 35,000 cells/well (384-well), 70,000 cells/well (96-well), or, 400,000 cells/well (24-well) in modified hepatocyte clonal growth medium (dHCGM). dHCGM is a DMEM medium containing 100 U/ml Penicillin, 100 μg/ml Streptomycin, 20 mM Hopes, 44 mM NaHCO3, 15 μg/ml L-proline, 0.25 μg/ml insulin, 50 nM Dexamethazone, 5 ng/ml EGF, 0.1 mM Asc-2P, 2% DMSO and 10% FBS (Ishida et al., 2015). Cells were cultured at 37° C. incubator in a humidified atmosphere with 5% CO2. Culture medium was replaced 24 h post-plating and every 2 days until harvest.
Following 4 day of maturation with 1 μM MB-1, HLC were incubated with HBV (purified from CHB individuals) at multiplicity of infection (MOI) 10-40 without PEG for 24 hr; virus inoculum was removed the following day. […] Compound treatment in HLC and PHH was started at day 3 post infection. Compound (in powder) was dissolved in DMSO; the final concentration of DMSO added to cells is 1%. Fresh compound was replenished every 2 day until cells were harvested at day 10 (PHH), or day 14 (HLC). Compound effect on HBV and cellular toxicity was measured by multiplex assay (HBsAg, HBeAg, albumin), branched DNA (pgRNA), or digital PCR (cccDNA) and depicted as % of inhibition compared to DMSO control. Graphs were prepared using Spotfire software.
Levels of pgRNA in infected cells (96-well plate) were measured using QuantiGene Singleplex 2.0 assay (Affymetrix), a hybridization-based assay that utilizes the xMAP™ Luminex magnetic beads and branched DNA (bDNA) signal amplification technology. The assay is performed in 96-well plate according to manufacturer's recommendation. Briefly, cells were lysed and lysates were incubated with HBV probe sets panel at 50-55° C. for 30 min then stored at −80° C. Signal amplification is achieved via sequential hybridization of PreAmplifier, Amplifier, and Label Probe. After adding Streptavidin phycoerythrin (SAPE) substrate, the signal is read using a FlexMap 3D (Luminex) instrument.

`O=C(NCc1cccc(F)c1)c1cccc2[nH]c(-c3c(NC[C@@H](O)c4ccccc4)cc[nH]c3=O)nc12` [MB-1] was tested, and the “concentration at which mRNA expression of liver-enriched genes is enhanced” value [1] was 55 µM.

`O=C(NC(CO)CO)c1c[nH]c2ncc(C3CC3)nc12` [compound 7] was tested, and the IC50 ([2]; 240 h, patient-derived HBV GT A, MOI 40, day 10 pi, read-out: pgRNA IC50 (μM) Median) was 3.58 µM, the IC50 ([2]; 240 h, patient-derived HBV GT B, MOI 40, day 10 pi, read-out: pgRNA IC50 (μM) Median) was 3.13 µM and the IC50 ([2]; 240 h, patient-derived HBV GT C, MOI 40, day 10 pi, read-out: pgRNA IC50 (μM) Median) was 1.64 µM. The IC50 ([2]; 240 h, patient-derived HBV GT D, MOI 40, day 10 pi (Table 5), read-out: pgRNA IC50 (μM) Median) was 1.35 µM, the IC50 ([2]; HepG2.2.15-derived HBV GT D, MOI 40, read-out: pgRNA IC50 (μM) Median) was 12.8 µM and the IC50 ([2]; HepG2.2.15-derived HBV GT D, MOI 125, read-out: pgRNA IC50 (μM) Median) was 11.3 µM. The IC50 ([2]; patient-derived HBV GT D, MOI 40 (Table 6), read-out: pgRNA IC50 (μM) Median) was 1.48 µM, the IC50 ([2]; patient-derived HBV GT D, MOI 125, read-out: pgRNA IC50 (μM) Median) was 2.87 µM and the IC50 ([2]; patient-derived HBV, read-out: pgRNA IC50) was 1.48 µM.
